# Values joined by “and” are separate entries in the source; they are usually repeats but may differ in a detail not shown here. Equal entries are not always repeated.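 These data come from cells grown in 96-well plates and exposed to compound for 48 hours at five concentrations. At the GI50, growth is halved. Definition used: TGI = concentration required for complete inhibition of growth.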
# Test system: MDA-MB-468 breast
# Assay: NCI-60 cell line screen, 48 h
Structure (SMILES),GI50,TGI
C[C@H](Nc1ccc2c(c1)OCCn1cc(N3C(=O)OC[C@H]3C(F)F)nc1-2)C(N)=O,343 nM,6270 nM
CCOC(=O)c1cnc2c(C)cc(C)cc2c1NCCCN(C)C,2000 nM,8450 nM
c1ccc(-c2n(Cc3ccc4ccccc4n3)cc[n+]2Cc2ccc3ccccc3n2)cc1,221 nM,1430 nM
CCOC(=O)C(=Cc1ccc(-c2ccccc2)cc1)C(=O)OCC,3240 nM,10100 nM
Cc1ccc(C2CC(c3cccc(Nc4ccncc4)c3)=NN2c2cc(Cl)cc(Cl)c2)cc1 (stereo not drawn),1410 nM,2840 nM
CCn1cc(C2NC(=O)c3ccccc3N2)c2cccc(C)c21 (stereo not drawn),216 nM,656 nM
CC(=O)O[C@H]1C[C@H](O[C@H]2[C@@H](O)C[C@H](O[C@H]3[C@@H](O)C[C@H](O[C@H]4CC[C@@]5(C)C(CCC6C5C[C@@H](O)[C@]5(C)[C@@H](C7=CC(=O)OC7)CC[C@]65O)C4)O[C@@H]3C)O[C@@H]2C)O[C@H](C)[C@H]1O[C@@H]1O[C@H](CO)[C@@H](O)[C@H](O)[C@H]1O (stereo partly drawn),85.6 nM and 220 nM,223 nM and 577 nM
C=C1C(=O)O[C@H]2[C@H]1CC/C(COC(=O)NCc1ccc(Cn3c(=O)sn(CCCC)c3=O)cc1)=C\CC[C@@]1(C)O[C@@H]21,1730 nM,3630 nM
O=C1Nc2ccccc2/C1=C/C(=N/c1nnc(-c2ccc(Cl)cc2)s1)c1ccccc1,2020 nM,6270 nM
N#Cc1c(NC(=O)c2cccc(C(F)(F)F)c2F)sc2c1CCC(=O)C2,292 nM,1030 nM
COc1ccc(-c2nc(S(=O)(=O)c3ccccc3)c(S(=O)CC(=O)N3CCC(C)CC3)o2)cc1 (stereo not drawn),1630 nM,4650 nM
COc1cccc(CNCCN2C(=O)c3ccc4c5c(ccc(c35)C2=O)C(=O)N(CCNCc2cccc(OC)c2)C4=O)c1,1760 nM,3560 nM
COc1ccc(OC)c(N(CCN2C(=O)c3ccccc3C2=O)C(=O)CCl)c1,4430 nM,22000 nM
COc1cc2c(Nc3ccc(Cl)c(Cl)c3F)ncnc2cc1OCC1C[C@@H]2CN(C)C[C@@H]2C1 (stereo partly drawn),24.1 nM and 21.7 nM and 21.2 nM,175 nM and 633 nM and 213 nM
COc1cc(/C=C\c2cc(/C=C\c3ccc(O)c(OC)c3)n(C(=O)COc3ccc(Cl)cc3Cl)n2)ccc1O,1990 nM,5340 nM
CCOc1cc2ncc(C#N)c(Nc3ccc(F)c(Cl)c3)c2cc1NC(=O)CC1CCSS1 (stereo not drawn),473 nM,1170 nM
O=C(c1ccccc1)N(C(=S)NCCc1ccc(Cl)cc1)c1ccc(Cl)cc1,5410 nM,33400 nM
CN1CCN(CCOc2ccc(-c3cnc4c(-c5cccc(F)c5F)cnn4c3)cc2)CC1,1450 nM,3060 nM
CC[C@H](C)[C@H](NC(=O)C12CC(NC)(C1)C2)C(=O)N(C)[C@H](C[C@@H](OC(C)=O)c1nc(C(=O)N[C@@H](Cc2ccccc2)C[C@H](C)C(=O)OC)cs1)C(C)C,59.1 nM,2260 nM

Structure (SMILES),GI50,TGI
Cc1cc(Cl)ccc1Nc1nc(C(F)(F)F)ccc1C(=O)N/N=C/c1cccc(O)c1,1510 nM,9690 nM
Cc1cc2nc(CS)[nH]c2cc1C,13000 nM,30400 nM
COc1ccc2cnc(N)c(C#Cc3cc(C(=O)Nc4ccc(CN5CCN(C)CC5)c(C(F)(F)F)c4)cnc3C)c2c1,8830 nM,27600 nM
COc1ccc(C(=O)N2N=C(c3ccc(Br)cc3)CC2c2cn(-c3ccccc3)nc2-c2ccccc2)cc1 (stereo not drawn),6590 nM,> 50000 nM
[Cl][Ru].c1ccc(-c2cc(-c3ccccn3)nc(-c3ccccn3)c2)cc1.c1ccc(-c2ccnc3c2ccc2c(-c4ccccc4)ccnc23)cc1,208 nM,635 nM
COC(=O)c1ccc2[nH]c(O)c(C(=Nc3ccc(N(C)C(=O)CN4CCN(C)CC4)cc3)c3cccc(OC)c3)c2c1,1440 nM,3500 nM
Cc1ccc2c(c1)C(=O)C(c1c(-c3[nH]c(=O)c4ccc(C)cc4c3O)c(O)c3ccccc3c1O)=NC2=O,313 nM,987 nM
COc1ccc2c(c1)c(-c1nonc1-c1cn(C)c3ccccc13)cn2C,330 nM,–
Cn1ccnc1C(=O)/C=C/c1ccc(C(=O)Nc2ccc(F)cc2)cc1,813 nM,3060 nM
CN1CCN(CCCOc2ccc3ncnc(Nc4ccc(OCc5cccc(F)c5)c(Cl)c4)c3c2)CC1,367 nM,1840 nM
N#C/C(=C\c1ccc2c(c1)OCO2)n1nnc2ccccc21,555 nM,7980 nM
C=C1CC[C@@H]2C(C)(C)[C@H](O)CC[C@@]2(C)[C@@H]1COc1ccc2ccc(=O)oc2c1,20500 nM,78200 nM
CN(C)c1ccc2nc3ccc(=[N+](C)C)c([N+](=O)[O-])c-3sc2c1,1410 nM,3350 nM
CCOC(=O)c1c(NC(=O)c2cccc(C(F)(F)F)c2)sc2c(CN3CCN(C)CC3)c(O)ccc12,1650 nM,3250 nM
O=S(=O)(Nc1cccc(Cl)c1)c1ccc(-c2cnc(C3CC3)o2)cc1,411 nM,12200 nM
COc1cc(Cl)cc(-c2nn(-c3cccc(NC(=O)c4cccc(C(F)(F)F)c4)c3)cc2-c2ccncc2)c1,4260 nM,> 100000 nM
O=C1/C(=C/c2ccc(Cl)cc2Cl)CN(S(=O)(=O)c2ccccc2)C/C1=C\c1ccc(Cl)cc1Cl,687 nM,2730 nM
CC(C)c1ccc(COCc2cc(CN3CCCC3)c(O)c3ncccc23)cc1,401 nM,1880 nM

# From PubChem BioAssay (NCI)
